{"source": "patent US20120178763A1", "about": "“Method of Treating Anxious Major Depressive Disorder” (priority 2008, published 2012)", "key": {"Male Sprague Dawley rats": {"system": "Male Sprague Dawley rats", "assay": "Learned helplessness procedure", "type": "in vivo, rat", "conditions": "for Mean Center Crossings ± SEM: gauge of motor activity; for Mean Escape Failures ± (SEM): of 50 trials", "experimental": "Male Sprague Dawley rats were exposed to inescapable electrical stimulation for 2 successive, daily 1 hour periods (conditioning), and then subsequently trained to avoid or escape the electrical stimulation by running to the opposite side of the test cage. […] In the training phase, when the electrical stimulation was escapable, the number of escape failures was recorded. Standard shuttle cages (20 L×16 W×21 centimeters H) fitted with a grid floor were used. The chambers could be partitioned with a closed partition or with an archway that allowed the animals to pass between the 2 sides of the cage. A computer controlled and monitored all events in the chamber.\nThe procedure utilized involved an induction phase and an avoidance training phase. In the induction phase, rats were enclosed in one side of the shuttle cage and electrical stimulation (2 mA, […]) was delivered to the floor of the cage every 2, 5 or 10 seconds (randomly selected for each trial) until 90 electrical stimulations were delivered. Subjects had no opportunity to escape or to avoid the electrical stimulation. Induction was conducted for 2 consecutive days. In the avoidance training phase, a partition with an arch through which the rats could pass was inserted into the center of the shuttle cages. The method employed a standard shuttle avoidance in which a compound, conditioned stimulus (a 5 second presentation of a tone and turning on of a lamp on the side of the rat containing cage) served to indicate impending presentation of electrical stimulation to the floor of the cage. The electrical stimulation was presented for a 5 second period 5 seconds after initiation of the conditioned stimulus. […] A 30 second inter-trial interval was employed. 40 minute avoidance training sessions, consisting of 50 trials were conducted on 2 consecutive days, beginning 48 hours after the final induction session.\nDosages of all compounds are reported as the free base. […] Drug was administered immediately following conditioning and training sessions and approximately 7-8 hrs after the first injection, as well as on the day in the middle of the study when no conditioning or training was conducted. In study 2, imipramine was administered 30 minutes prior to avoidance training whereas in all other circumstances, drug was administered following training.\nThe primary dependent variable was escape failures during avoidance training. […] T-Tests were used to compare the performance of the vehicle-administered group to drug treated groups. The no-induction group was used to gauge whether learned helplessness was established, by comparison to the vehicle treated group."}, "rats": {"system": "rats", "assay": "Punished responding procedure (modified Geller-Seifter conflict test)", "conditions": "for Rate of responding, Punished responding / Rate of responding, Unpunished responding: 60 minute pretreatment", "text": "In the conflict test, hungry animals were trained to lever-press for food delivery in a standard operant chamber under 2 conditions. In the first condition, referred to as the unsuppressed component, food was delivered on average after 17 lever-presses were made (also called a VR17 schedule of reinforcement). In the second condition, referred to as the suppressed component and signaled by flashing lights inside the operant chamber, food was also delivered following an average of 17 lever-presses, but electric shock was additionally delivered to the floor of the cage under a separate VR17 schedule. Daily sessions consisted of 5 alternating presentations of each component type: suppressed (3 minutes in duration) and unsuppressed (2 minutes in duration).\nCompound A was dissolved in distilled deionized water/lactic acid and was administered by mouth in a volume of 1 mL/kg body weight. […] Compound A was administered on Tuesday and Friday and vehicle on Thursday. Monday and Wednesday were washout/baseline days.\nStandard 2-lever operant chambers were used (Med Associates). The chambers were fitted with 2 retractable response levers and a stimulus lamp over each of the 2 levers. A pellet dispenser delivered 45 mg food pellets, (Bio Serv) to a cup located inside of the chamber below and between the 2 response levers. A lamp at the top and back of the chamber served as houselights. The grid floors of the operant chambers were interfaced to shock generators and scramblers (Med Associates). All events in the chambers were controlled and monitored by a microprocessor.\nThere were 2 components in the procedure: 1) an unsuppressed responding component (unpunished) with 2 minutes in duration; and 2) a suppressed responding component (punished) with 3 minutes in duration.\nIn the unpunished component, the houselights and both stimulus lamps over the response levers were turned on, the lever on the left-hand side of the chamber extended, and a food pellet was delivered following an average of 17 responses on the lever in the chamber (range 3 to 40 responses)—a variable-ratio 17 schedule (VR17).\nIn the punished component (which followed the unpunished component), the right-hand lever was extended into the chamber; the stimulus lamps and houselights were turned on and off at 1 second intervals, in succession, which served as a cue for this component; and food was available under a VR17 schedule, but was accompanied by an electrical current (0.5 second duration) that was delivered to the grid floor of the chamber under an independent VR17 schedule. The level of the current was adjusted for each individual subject until responding was reduced in the punished component to a level that was about 5% to 10% that of the unpunished component, and ranged from 0.2 mA to 0.75 mA. Unpunished and punished components were separated by 10 second time-out periods in which both response levers were retracted and all stimulus lamps turned off 2 minute unpunished and 3 minute punished components alternated until 5 of each were completed. Daily sessions always began with the unpunished responding component. […] Several doses were tested on a given test day in different subjects. Each dose, then, was tested in different sub-set of rats.\nThe dependent variables recorded were the rate of responding in unpunished and punished components (total responses/total time under the component) and the number of shocks delivered."}, "[1]": {"assay": "Efficacious mean plasma exposure in rodent tests of anxiolysis and antidepressant activity", "type": "in vivo", "conditions": "rodents; separate tests of anxiolysis and antidepressant activity"}}, "note": "“Also recorded” adds a separate entry of the source.", "data": [{"molecule": "CCN(CC)C(=O)c1ccc([C@H](c2cccc(N)c2)N2CCN(Cc3ccc(F)cc3)CC2)cc1", "note": "[Example 2, 4-{(R)-(3-aminophenyl)[4-(4-fluorobenzyl)piperazin-1-yl]methyl}-N,N-diethylbenzamide]", "values": [{"measurement": "Mean Center Crossings ± SEM", "setting": "Male Sprague Dawley rats; 0.1 mg/kg by mouth twice a day", "value": "26.6 (0.85)"}, {"measurement": "Mean Escape Failures ± (SEM)", "setting": "Male Sprague Dawley rats; 0.1 mg/kg by mouth twice a day", "value": "6.1 (3.4)"}, {"measurement": "Mean Center Crossings ± SEM", "setting": "Male Sprague Dawley rats; 1 mg/kg by mouth twice a day", "value": "30.9 (2.9)"}, {"measurement": "Mean Escape Failures ± (SEM)", "setting": "Male Sprague Dawley rats; 1 mg/kg by mouth twice a day", "value": "3.1 (1.7)"}, {"measurement": "Mean Center Crossings ± SEM", "setting": "Male Sprague Dawley rats; 10 mg/kg by mouth twice a day", "value": "26.9 (0.7)"}, {"measurement": "Mean Escape Failures ± (SEM)", "setting": "Male Sprague Dawley rats; 10 mg/kg by mouth twice a day", "value": "4.9 (2)"}, {"measurement": "effect on escape failures", "setting": "Male Sprague Dawley rats; 0.1, 1 and 10 mg/kg by mouth twice a day, only the 2 higher doses significant, listed as Compound A", "value": "tended to decrease escape failures; also recorded: produced a decrease in escape failures"}, {"measurement": "Percent of control, Punished responding", "setting": "rats; 0.21 μmol/kg by mouth", "value": "107 ± 19.3% of control"}, {"measurement": "Percent of control, Unpunished responding", "setting": "rats; 0.21 μmol/kg by mouth", "value": "103 ± 1.63% of control"}, {"measurement": "effect on punished responding", "setting": "rats; 0.21 μmol/kg by mouth", "value": "not effective"}, {"measurement": "Rate of responding, Punished responding", "setting": "rats; 0.21 μmol/kg by mouth", "value": "0.11 ± 0.02"}, {"measurement": "Rate of responding, Unpunished responding", "setting": "rats; 0.21 μmol/kg by mouth", "value": "2.06 ± 0.11"}, {"measurement": "Percent of control, Punished responding", "setting": "rats; 0.63 μmol/kg by mouth", "value": "273 ± 39.2% of control"}, {"measurement": "Percent of control, Unpunished responding", "setting": "rats; 0.63 μmol/kg by mouth", "value": "92.1 ± 5.12% of control"}, {"measurement": "Rate of responding, Punished responding", "setting": "rats; 0.63 μmol/kg by mouth", "value": "0.24 ± 0.03"}, {"measurement": "Rate of responding, Unpunished responding", "setting": "rats; 0.63 μmol/kg by mouth", "value": "2.02 ± 0.14"}, {"measurement": "Percent of control, Punished responding", "setting": "rats; 2.1 μmol/kg by mouth", "value": "298 ± 132% of control"}, {"measurement": "Percent of control, Unpunished responding", "setting": "rats; 2.1 μmol/kg by mouth", "value": "106 ± 5.60% of control"}, {"measurement": "Rate of responding, Punished responding", "setting": "rats; 2.1 μmol/kg by mouth", "value": "0.18 ± 0.04"}, {"measurement": "Rate of responding, Unpunished responding", "setting": "rats; 2.1 μmol/kg by mouth", "value": "1.95 ± 0.15"}, {"measurement": "increase in punished responding (maximal efficacy)", "setting": "rats; 2.11 μmol/kg by mouth", "value": "about 300%"}, {"measurement": "Percent of control, Punished responding", "setting": "rats; 6.3 μmol/kg by mouth", "value": "207 ± 67.2% of control"}, {"measurement": "Percent of control, Unpunished responding", "setting": "rats; 6.3 μmol/kg by mouth", "value": "106 ± 2.94% of control"}, {"measurement": "Rate of responding, Punished responding", "setting": "rats; 6.3 μmol/kg by mouth", "value": "0.17 ± 0.03"}, {"measurement": "Rate of responding, Unpunished responding", "setting": "rats; 6.3 μmol/kg by mouth", "value": "1.92 ± 0.13"}, {"measurement": "Percent of control, Punished responding", "setting": "rats; 21.1 μmol/kg by mouth", "value": "272 ± 100% of control"}, {"measurement": "Percent of control, Unpunished responding", "setting": "rats; 21.1 μmol/kg by mouth", "value": "95.5 ± 4.08% of control"}, {"measurement": "Rate of responding, Punished responding", "setting": "rats; 21.1 μmol/kg by mouth", "value": "0.20 ± 0.04"}, {"measurement": "Rate of responding, Unpunished responding", "setting": "rats; 21.1 μmol/kg by mouth", "value": "1.69 ± 0.12"}, {"measurement": "effect on rate of punished responding", "setting": "rats; 0.63, 2.11, 6.3, and 21.1 μmol/kg compared to vehicle controls", "value": "increased the rate of punished responding"}, {"measurement": "effect on unpunished responding", "setting": "rats; at the doses tested (0.21 to 21 μmol/kg)", "value": "did not significantly decrease unpunished responding"}, {"measurement": "acute anxiolytic activity", "setting": "rats; modified Geller-Seifter conflict model", "value": "has acute anxiolytic activity"}, {"measurement": "sedative/hyperactive properties", "setting": "rats; observations of test subjects in their home cage", "value": "does not possess sedative/hyperactive properties"}]}, {"molecule": "CCN(CC)C(=O)c1ccc([C@H](c2cccc(N)c2)N2CCN(Cc3ccc(F)cc3)CC2)cc1.CCN(CC)C(=O)c1ccc([C@H](c2cccc(N)c2)N2CCN(Cc3ccc(F)cc3)CC2)cc1.O=C(O)/C=C/C(=O)O.O=C(O)/C=C/C(=O)O.O=C(O)/C=C/C(=O)O", "note": "[Example 3, 4-{(R)-(3-aminophenyl)[4-(4-fluorobenzyl)piperazin-1-yl]methyl}-N,N-diethylbenzamide sesquifumarate]", "values": [{"measurement": "mean plasma exposures shown to be efficacious", "setting": "[1]", "value": "≥ 2", "unit": "ng/mL"}]}, {"molecule": "CN(C)CCCN1c2ccccc2CCc2ccccc21", "note": "[Imipramine, imipramine, reference compound]", "values": [{"measurement": "Mean Escape Failures ± (SEM)", "setting": "Male Sprague Dawley rats; 20 mg/kg by mouth twice a day", "value": "2.3 (1)"}]}, {"molecule": "CN1C(=O)CN=C(c2ccccc2)c2cc(Cl)ccc21", "note": "[diazepam, reference compound]", "values": [{"measurement": "level of efficacy in the conflict model (punished responding)", "setting": "rats; 3.5 μmol/kg by mouth, data not shown", "value": "~250", "unit": "%"}]}]}
